Patent publication US20200109394A1, “COMPOSITIONS AND METHODS FOR ISOLATING CIRCULATING CELLS” (Prescient Pharma LLC, priority 2018, published 2020)

Tests used:
[1] = test system: HT29 cells; assay: Depletion of Fe2DG-loaded HT29 cells by external magnet from mixture with whole blood (FACS); type: cell-based; conditions: Fe2DG 1 mg per 1 ml in human whole blood, RT 2 hours, 30 min inside round magnet vs outside
Description: In this Example, the effect of external magnet on suspension HT29 cells (human adenocarcinoma) in whole blood after adding of Fe2DG was studied. For routine maintenance, HT29 cells (ATCC HTB-38) were grown in McCoy's 5A complete growth medium (Cat. No. 30-2007; ATCC, Manassas, Va.) supplemented by 10% FBS, and 1× Penicillin/Streptomycin in an incubator at 37° C. and 5% CO2. Cells were passaged every 4 days. The cells were detached from flasks using trypsin and re-suspended in 5 mL of fresh McCoy's 5A medium. Suspension of HT29 cells (ATCC HTB-38) was count by Countess automated cell counter (Invitrogen). Results: total 1.5×10^6/ml, live cells 1.4×10^6/ml, dead cells 1.3×10^5/ml, Viability 91% Cells were stained by BCECF AM (Life technologies Ref # B1150) intracellular fluorescent dye, according manufacturer instructions. 1 mg of BCECF AM (Invitrogen) was dissolved in 1 ml of DMSO and 10 aliquots were prepared. 1 aliquot was dissolved in 10 ml of Hank's Balanced Salt Solution to make working concentration (0.016 mM). Working solution of BCECF AM was added to HT29 cells suspension (5 ml of BCECF AM 5 ml of HT29 cells suspension in medium) and incubated in room temperature for 30 minutes in the dark. 500 ul of HT29 suspension was added to 4 ml of fresh human volunteer whole blood. Fe2DG in final concentration 1 mg per 1 ml was added. The blood then was incubated in RT for 2 hours. […]

[2] = test system: WBC; assay: Effect on WBC of magnetic trapping in the HT29/whole blood mixture with Fe2DG (FACS); type: cell-based; conditions: Fe2DG 1 mg per 1 ml in human whole blood, RT 2 hours, 30 min inside round magnet
Description: 500 ul of HT29 suspension was added to 4 ml of fresh human volunteer whole blood. Fe2DG in final concentration 1 mg per 1 ml was added. The blood then was incubated in RT for 2 hours. Then the blood was divided on two portions. Both portions were placed inside of plastic tube (10 cm long, 3 mm outside diameter). One tube was placed inside of the round magnet, another tube was outside of the magnet. After incubation for 30 min; contents of both tubes were gently pushed out. RBC were lysed by adding 4 volumes of distillate water for 30 sec. Then PBS was added to restore osmolarity. After centrifugation for 5 min 1000 rpm and removing of supernatant, the pellet was resuspended in 0.5 ml of PBS and introduced for analysis by BD FACS Aria III

[3] = test system: A375-eGFP-puro cells; assay: Enrichment of A375-eGFP-puro cells incubated with Fe2DG by external magnet from mixture with whole human blood (FACS); type: cell-based; conditions: Fe2DG 1 mg per 1 ml in human whole blood, RT 2 hours, 30 min in magnet; fraction #2 (tube out of magnet) vs fraction #1, FACS
Description: In this second Example, the effect of external magnet on suspension A375-eGFP-puro cells (human melanoma) in whole blood after adding of Fe2DG was studied.
A375-eGFP-puro cells (Imanis Life Science) has enhanced Green Fluorescent Protein as a reporter. And can be detected by fluorescent microscope of FACS because of green fluorescence.
For routine maintenance, A375-eGFP-puro cells were grown in DMEM complete growth medium (Cat. No. 30-2002; ATCC, Manassas, Va.) supplemented by 10% FBS, Penicillin/Streptomycin and 1 ug/ml Puromycin in an incubator at 37° C. and 5% CO2. Cells were passaged every 4 days. The cells were detached from flasks using trypsin and re-suspended in 5 mL of fresh DMEM medium.
500 ul of A375-eGFP-puro cells suspension was added to 4 ml of fresh human volunteer whole blood. Fe2DG in final concentration 1 mg per 1 ml was added. The blood then was incubated in RT for 2 hours. Then the blood was placed inside of plastic tube (10 cm long, 3 mm outside diameter). The tube was placed inside of the round magnet. After incubation for 30 min; 0.1 ml of the blood was gently pushed through the tube and through the magnet. […] After centrifugation for 5 min 1000 rpm and removing of supernatant, the pellet was resuspended in 0.5 ml of PBS and introduced for analysis by BD fluorescence-activated cell sorter (FACS) Aria III.

[4] = test system: HT29 cells; assay: Prussian blue iron staining of HT29 cells after incubation in medium with Fe2DG; type: cell-based, human; conditions: Fe2DG 1 mg/ml in DMEM no glucose with 10% FBS, two hours
Description: In this third Example, the differential ability of normal vs cancer cells (higher for malignant cells) to accumulate Iron (Fe) from Fe2DG added to medium was studied. For routine maintenance, HT29 cells (ATCC HTB-38) were grown in McCoy's 5 A complete growth medium (Cat. No. 30-2007; ATCC, Manassas, Va.) supplemented by 10% FBS, and 1× Penicillin/Streptomycin in an incubator at 37° C. and 5% CO2. Cells were passaged every 4 days. For Fe2DG treatments, HT29 cells (ATCC HTB-38) cells were grown in 25 cm^2 Nunclon Delta Surface flasks (Cat. No. 136196; Thermo Fisher Scientific, Waltham, Mass.) with McCoy's 5A complete medium and kept in an incubator at 37° C. and 5% CO2 until close to 75% confluence was reached. Then medium for both cell types was replaced by DMEM no glucose (ThermoFisher Cat. No. 11966025) supplemented by 10% FBS and Fe2DG 1 mg/ml for two hours. Then medium was removed and both flasks were stained by Prussian blue staining kit “Advanced testing Iron stain” (ThermoFisher Cat. No. 87006). Cells in the flasks were fixed by 10% Formalin, then rinsed by deionized water. Then the cells were stained by freshly prepared Working Iron Solution 30 minutes at room temperature. Then the cells were rinsed by deionized water and counterstain by Nuclear Red Satin Solution for 30 seconds. […]

[5] = test system: CRL-1790 cells (human fibroblasts); assay: Prussian blue iron staining of CRL-1790 cells after incubation in medium with Fe2DG; type: cell-based; conditions: Fe2DG 1 mg/ml in DMEM no glucose with 10% FBS, two hours
Description: In this third Example, the differential ability of normal vs cancer cells (higher for malignant cells) to accumulate Iron (Fe) from Fe2DG added to medium was studied. For routine maintenance, CCD 841 CoN human colon fibroblast cells (CRL-1790; ATCC, Manassas, Va.) were grown in EMEM complete growth medium (Cat. No. 30-2003; ATCC, Manassas, Va.) supplemented by 10% FBS, and 1× Penicillin/Streptomycin in an incubator at 37° C. and 5% CO2. Cells were passaged every 4 days. For Fe2DG treatments, CCD 841 CoN cells were grown in 25 cm^2 Nunclon Delta Surface flasks (Cat. No. 136196; Thermo Fisher Scientific, Waltham, Mass.) with EMEM complete medium and kept in an incubator at 37° C. and 5% CO2 until close to 75% confluence was reached. Then medium for both cell types was replaced by DMEM no glucose (ThermoFisher Cat. No. 11966025) supplemented by 10% FBS and Fe2DG 1 mg/ml for two hours. Then medium was removed and both flasks were stained by Prussian blue staining kit “Advanced testing Iron stain” (ThermoFisher Cat. No. 87006). Cells in the flasks were fixed by 10% Formalin, then rinsed by deionized water. Then the cells were stained by freshly prepared Working Iron Solution 30 minutes at room temperature. Then the cells were rinsed by deionized water and counterstain by Nuclear Red Satin Solution for 30 seconds. […]

[6] = test system: HT29 cells; assay: Depletion of HT29 cells loaded with Fe2DG by external magnet in McCoy's 5A medium (microscopy); type: cell-based, human; conditions: Fe2DG 1 mg per 1 ml in McCoy's 5A medium with 10% FBS, RT 1 hour, 30 min inside round magnet vs outside, Hematoxylin stain
Description: In this fourth Example, the effect of external magnet on suspension HT29 cells (human adenocarcinoma) in complete McCoy's 5A medium after adding of Fe2DG was studied. Suspension of HT29 cells (ATCC HTB-38) in McCoy's 5A medium with 10% of FBS was count by Countess automated cell counter (Invitrogen). Results: live cells 3.6×10^6/ml, dead cells 1.6×10^5/ml, Viability 96% Fe2DG was added to the cell suspension in final concentration 1 mg per 1 ml. Cells then were incubated in RT for 1 hour. Then the suspension was divided on two portions. Both portions were placed inside of plastic tube (10 cm long, 3 mm in diameter). One tube was placed inside of the round magnet, another tube was outside of the magnet. After incubation for 30 min; contains of both tubes were gently pushed out, and placed on the glass slide, and stained by Hematoxylin. Slides were examined under light microscope Olympus BX51 and pictures were taken using Olympus DP73 digital camera.

Substance: Fe (III)-2 deoxy D glucose [Fe2DG]
- depletion of BCECF AM stained HT29 cells (gate 4) in the sample pushed out of the tube inside the magnet [1]: significant depletion
- specificity of magnetic trapping: effect on WBC [2]: without affect WBC
- enrichment of A375-eGFP-puro cells in the second fraction (2nd) [3]: 18.5 times
- accumulation of iron (Prussian blue stain) in cancer cells (HT29) [4]: significant accumulation of iron
- accumulation of iron (Prussian blue stain) in normal human fibroblasts (CRL-1790) [5]: practically no accumulation of Iron
- depletion of HT29 cells in the sample pushed out of the tube inside the magnet [6]: significant depletion
